A melting point compilation (Tetko et al.; mined from patent text by program, amines drawn as free bases though some values may be those of a salt)
Residues, ends and D or L forms follow the SMILES beside them. *: point of attachment. Tos = Cc1ccc(S(=O)(=O)*)cc1

First: COc1ccc(CCC(=O)c2c(OC)cc(OC)c(CCC(C)C)c2OCC(=O)O)cc1O
Second: COC(=O)c1cc(-c2c(OC)cccc2OC)n(-c2ccc(NS(=O)(=O)c3ccc(C)cc3)cc2CC(C)C)n1
The melting point of the first is lower: 129 to 130 °C for the first, 224 °C for the second.

First: CC(C)(C)OC(=O)N1CCC[C@@H](Nc2ncc3c(n2)-c2ccccc2[C@@H](c2ccc(Cl)c(Cl)c2)C3)C1
Second: O=C(NCCN1CCOCC1)Oc1cccc(C2CCCN2Cc2ccccc2)c1 (stereo unspecified)
The melting point of the first is higher: 85 to 87 °C for the first, 74 to 77 °C for the second.

First: CCCCC(CC)COCCCN1C(C)=CC(=C(C#N)C(=O)OCC(CC)CCCC)C=C1C (stereo unspecified)
Second: CCOC(=O)C1=C(C(OCC)OCC)NC(C)=C(C(=O)OCCCl)C1c1cccc([N+](=O)[O-])c1 (stereo unspecified)
The melting point of the first is lower: 69 to 70 °C for the first, 96 to 97 °C for the second.

Compared with `CC(=O)Nc1c(C(=O)c2cccc(C)n2)[nH]c2cc(Cl)c(Br)cc12`, `CCOC(=O)c1c(C)cc2c(=O)n(-c3ccccc3C(=O)O)cnc2c1C` is lower in melting point: 234 to 236 °C for the first, 207 to 210 °C for the second.

First: Cn1cc2c(OCC3COC(Cn4ccnc4)(c4ccc(Cl)cc4Cl)O3)cc(-c3ccccc3)nc2n1 (stereo unspecified)
Second: Cc1c(CC(=O)O)c2cc(OCc3csc(-c4ccccc4)n3)ccc2n1Cc1ccccc1
The melting point of the first is higher: 227 to 229 °C for the first, 150 to 151 °C for the second.

`O=C1NC(=O)C(c2ccc(N3C(=O)c4ccccc4C3=O)cc2)S1` (stereo unspecified) and `O=c1ccc(S(=O)(=O)c2oc3ccc(Cl)cc3c2-c2ccccc2)n[nH]1` cannot be ordered by melting point: 243 to 245 °C for the first, over 240 °C for the second.

Compared with `COc1ccc(COC2CC(n3cc(C(F)(F)F)c(=O)n(C(=O)c4ccccc4)c3=O)OC2CO)cc1` (stereo unspecified), `Cc1nn(-c2ccccn2)cc1COc1ccc(COc2ncccc2CC(=O)O)cc1` is lower in melting point: 152 to 153 °C for the first, 150 to 151 °C for the second.

Compared with `O=C(NS(=O)(=O)c1ccccc1)c1cccc2nnsc12`, `O=S(=O)(c1ccccc1)C1CCC(COc2ccc(F)cc2)O1` (racemic) is lower in melting point: 173 to 175 °C for the first, 102 to 104 °C for the second.

Compared with `CC/C(=C\c1ccc(OCCOC)cc1Oc1ncc(Cl)cc1Cl)C(=O)O`, `COC(=O)COc1ccc(C(C)=O)c(OCCCBr)c1` is lower in melting point: 139 to 140 °C for the first, 67 to 70 °C for the second.

First: COCCn1c(C)c(C2(c3ccc(N(C)C)cc3C)OC(=O)c3ccccc32)c2ccccc21 (stereo unspecified)
Second: CCN1C(=O)C(C)(C)C(=O)N(C)c2cc(CN(C)Cc3ccccc3CN3C(=O)CCc4ccccc43)ccc21
The melting point of the first is higher: 205 to 207 °C for the first, 125 to 127 °C for the second.

Compared with `COc1ccc(N2CCCN(c3c(C)c(C)c4c(c3C)CC(C)(C)O4)CC2)cc1`, `Cn1ccc2cccc(C(=O)N3CCN(c4ncccn4)CC3)c21` is higher in melting point: 105 to 107 °C for the first, 159 to 160 °C for the second.

First: COc1ccc(OCCO)cc1
Second: CS(=O)(=O)OC[C@@H]1CN(c2ccc(O)cc2)C(=O)O1
The melting point of the first is lower: 69 to 71 °C for the first, 282 to 284 °C for the second.

First: Cc1oc(-c2ccc(Cl)cc2)cc1C(=O)N[C@H](C)[C@](O)(Cn1cncn1)c1ccc(F)cc1F
Second: C[C@@H](S[C@H]1CO[C@H](c2ccc(C(=O)Nc3nccs3)cc2)OC1)[C@](O)(Cn1cncn1)c1ccc(F)cc1F
The melting point of the first is higher: 189 to 190 °C for the first, 108 °C for the second.

First: Fc1ccc([C@H]2CC[C@H](N3CCN(Cc4ccc5ccccc5n4)CC3)CC2)cc1
Second: CN(C)C1(c2cccc(F)c2)CCC2(CC1)NCCc1c2[nH]c2ccccc12 (stereo unspecified)
The melting point of the first is lower: 160 to 162 °C for the first, 220 to 225 °C for the second.

First: CCOc1cccc(CC(=O)O)c1OCCCc1cn(-c2ccc(C(F)(F)F)cn2)nc1C(C)C
Second: CCOC(=O)c1cnc(-c2ccccc2OC(C)C)[nH]c1=O
The melting point of the first is higher: 141 to 142 °C for the first, 123 to 124 °C for the second.

First: OC1Cc2ccccc2Sc2cc(Cl)c(Cl)cc21 (stereo unspecified)
Second: O=C(O)c1cc(-c2ccccc2)cnc1Cl
The melting point of the first is lower: 124 to 126 °C for the first, 239 to 240 °C for the second.

First: Cc1cn(-c2cc(C#N)c(N)c(C(F)(F)F)c2)c(C)n1
Second: Cc1cc(-c2cc(C(F)(F)F)n3ncc(C#N)c3n2)ccc1Cl
The melting point of the first is lower: 208 to 210 °C for the first, 216 °C for the second.

First: CC(C)CCCC(C)C1CCC2(CC(=O)O)C3=C(CCC12C)C1(C)CCC(O)CC1CC3 (stereo unspecified)
Second: Cc1ccc(S(=O)(=O)N2CCC[C@H]2C(=O)N[C@@H](CCC(=O)O)C(=O)O)cc1 (Tos-Pro-Glu-OH)
The melting point of the first is higher: 191 to 193 °C for the first, 164 to 166 °C for the second.

First: CN(c1cccc2cc(C3=NCC(CCO)S3)[nH]c12)S(=O)(=O)c1ccccc1C(F)(F)F (stereo unspecified)
Second: COC(=O)Cn1c(C)cc(Cc2ccsc2)c(NC(=O)OCc2ccccc2)c1=O
The melting point of the first is higher: 153 to 154 °C for the first, 127 to 128 °C for the second.

First: O=C1CNc2cc([N+](=O)[O-])c(F)cc2O1
Second: O=C1NCCC[C@@H]1NS(=O)(=O)c1c(F)cccc1F
The melting point of the first is higher: 196 to 202 °C for the first, 152 to 153 °C for the second.

First: Cc1cc(Oc2cc(C(F)(F)F)nn2C)nc(Cl)n1
Second: COC(=O)c1ccc(Cl)c(-n2nn[nH]c2=O)c1Cl
The melting point of the first is lower: 65 °C for the first, 192 to 193 °C for the second.

First: CC[C@@H]1O[C@](/C=C/C2CC2)(C(F)(F)F)c2c(ccc3c2OCO3)NC1=O (relative stereo)
Second: CC(=O)OCC1OC(n2cc(Cc3ccc(Cl)cc3)c3c(Cl)cccc32)C(OC(C)=O)C(OC(C)=O)C1OC(C)=O (stereo unspecified)
The melting point of the first is lower: 188 to 190 °C for the first, 214 to 216 °C for the second.

Compared with `O=C(O)CCCCCc1c([N+](=O)[O-])cc(O)c(O)c1[N+](=O)[O-]`, `C[C@H](Cn1nnc2ccccc21)n1cnc2cc3c(=O)n(C4CC4)nnc3cc2c1=O` is lower in melting point: 120 to 127 °C for the first, 103 to 105 °C for the second.
